Experimental data from patent US4560662A, “Streptomyces antibioticus ATCC 31771 and process for obtaining same” (priority 1981, dated 1985).
Converted amounts (≈) assume the structure as drawn. Like-named read-outs stand apart in the source and are kept apart here.

How the values were obtained:
[1] = system: Staphylococcus aureus ATCC 6538 P; assay: Bacteriostatic power in solid medium (MIC), aerobic Gram positive; type: cell-based; conditions: Staphylococcus aureus
[2] = system: Staphylococcus aureus LRP 14; assay: as above; type: cell-based; conditions: Staphylococcus aureus
[3] = system: Streptococcus faecalis LRP 7; assay: as above; type: cell-based; conditions: Enterococcus faecalis
[4] = system: Streptococcus faecalis sub. zymogenes ATCC 12958; assay: as above; type: cell-based; conditions: Enterococcus faecalis
[5] = system: Streptococcus pneumonieae ATCC 6303; assay: as above; type: cell-based; conditions: Streptococcus
[6] = system: Streptococcus pneumonieae LRP 52; assay: as above; type: cell-based; conditions: Streptococcus
[7] = system: Streptococcus pneumonieae LRP 53; assay: as above; type: cell-based; conditions: Streptococcus
[8] = system: Streptococcus pyogenes ATCC 8668; assay: as above; type: cell-based; conditions: Streptococcus pyogenes
[9] = system: Streptococcus pyogenes LRP 197; assay: as above; type: cell-based; conditions: Streptococcus pyogenes
[10] = system: Corynebacterium diphteriae LRP 24; assay: as above; type: cell-based; conditions: Corynebacterium
[11] = system: Micrococcus luteus ATCC 9341; assay: as above; type: cell-based; conditions: Micrococcus luteus
[12] = system: Micrococcus luteus ATCC 15957; assay: as above; type: cell-based; conditions: Micrococcus luteus, ATCC15957, LRP 193, Erythromicina resistant, read-out: minimum inhibiting concentration
Source text: (§1) Turning now to an examination of the novel macrolide antibiotics produced according to the present invention, they are all characterized by a bacteriostatic spectrum like that of erythromycin and by the stability in acidic environment, whereby their direct administration by oral route is possible, without having recourse to esters and/or salts, showing the afore mentioned disadvantages and problems. The above is confirmed by the following Table 1, wherein the MIC values are reported, indicating the bacteriostatic power, and by the Table 2, giving the stability values in acidic environment. Without having to be construed in a limiting sense, it seems plausible that the greater stability of the macrolide. antibiotics of the present invention can be attributed to the presence in the molecule of the antibiotic of the neutral sugar oleandrose (J. Antib. (1976) XXIX (7), 728).
(§2) Bacteriostatic power in solid medium of Erythromycin A, Erythromycin B,
(§3) aerobic and anaerobic bacteria, Gram positive and Gram negative minimum
(§4) inhibiting concentrations expressed in mcg/ml.

[13] = system: Staphylococcus aureus ATCC 14154; assay: as above; type: cell-based; conditions: Staphylococcus aureus, ATCC14154, LRP 78, Erythromicina resistant, read-out: minimum inhibiting concentration
Source text: as §1, §2, §3, §4

[14] = system: Bacillus subtilis LRP 25; assay: as above; type: cell-based; conditions: Bacillus subtilis
[15] = system: Haemophilus influenzae ATCC 19418; assay: Bacteriostatic power in solid medium (MIC), aerobic Gram negative; type: cell-based; conditions: Haemophilus influenzae, ATCC19418, LRP 213, read-out: minimum inhibiting concentration
Source text: as §1, §2, §3, §4

[16] = system: Pseudomonas aeruginosa LRP 9; assay: as above; type: cell-based; conditions: Pseudomonas aeruginosa, LRP9, read-out: minimum inhibiting concentration
Source text: as §1, §2, §3, §4

[17] = system: Shigella sonnei LRP 5; assay: as above; type: cell-based; conditions: Shigella sonnei, LRP5, read-out: minimum inhibiting concentration
Source text: as §1, §2, §3, §4

[18] = system: Neisseria Gonorrhoeae ATCC 19424; assay: as above; type: cell-based; conditions: Neisseria gonorrhoeae
[19] = system: Escherichia coli LRP 50; assay: as above; type: cell-based; conditions: Escherichia coli, LRP50; solid medium; LRP 50; read-out: minimum inhibiting concentration
[20] = system: Klebsiella pneumoniae LRP 54; assay: as above; type: cell-based; conditions: Klebsiella pneumoniae
[21] = system: Proteus vulgaris ATCC 6380; assay: as above; type: cell-based; conditions: Proteus vulgaris
[22] = system: Salmonella typhi LRP 8; assay: as above; type: cell-based; conditions: Salmonella enterica, TYPHI, read-out: minimum inhibiting concentration
[23] = system: Acholeplasma laidlawii ATCC 23206; assay: as above; type: cell-based; conditions: Acholeplasma laidlawii
[24] = system: Mycoplasma hominis I ATCC 14097; assay: as above; type: cell-based; conditions: Metamycoplasma hominis
[25] = system: Clostridium perfrigens ATCC 3624; assay: Bacteriostatic power in solid medium (MIC), anaerobic; type: cell-based; conditions: Clostridium, ATCC3624, LRP 206, read-out: minimum inhibiting concentration
[26] = system: Bacteroides fragilis ATCC 23745; assay: as above; type: cell-based; conditions: Bacteroides fragilis
[27] = system: Fusobacterium necrophorum ATCC 27852; assay: as above; type: cell-based; conditions: Fusobacterium necrophorum, ATCC27852, read-out: minimum inhibiting concentration
[28] = physchem; type: physicochemical; conditions: acidic environment
Source text: t 1/2 represents the half life time of the antibiotics as determined by
high pressure liquid phase chromatography (HPLC).

CC[C@H]1OC(=O)[C@H](C)[C@@H](O[C@H]2C[C@@](C)(OC)[C@@H](O)[C@H](C)O2)[C@H](C)[C@@H](O[C@@H]2O[C@H](C)C[C@H](N(C)C)[C@H]2O)[C@](C)(O)C[C@@H](C)C(=O)[C@H](C)[C@@H](O)[C@]1(C)O [Erythromycin A, reference compound]
MIC ([1]; ATCC6538, read-out: minimum inhibiting concentration): 0.049 µg/mL (≈ 0.0668 µM) | MIC ([2]; LRP14, read-out: minimum inhibiting concentration): 0.049 µg/mL (≈ 0.0668 µM) | MIC ([3]; LRP7, read-out: minimum inhibiting concentration): 0.097 µg/mL (≈ 0.132 µM) | MIC ([4]; ATCC12958, read-out: minimum inhibiting concentration): 0.195 µg/mL (≈ 0.266 µM) | MIC ([5]; ATCC6303, read-out: minimum inhibiting concentration): 0.012 µg/mL (≈ 0.0164 µM) | MIC ([6]; LRP52, read-out: minimum inhibiting concentration): 0.012 µg/mL (≈ 0.0164 µM) | MIC ([7]; LRP53, read-out: minimum inhibiting concentration): 0.012 µg/mL (≈ 0.0164 µM) | MIC ([8]; ATCC8668, read-out: minimum inhibiting concentration): 0.012 µg/mL (≈ 0.0164 µM) | MIC ([9]; LRP197, read-out: minimum inhibiting concentration): 0.012 µg/mL (≈ 0.0164 µM) | MIC ([10]; LRP24, read-out: minimum inhibiting concentration): 0.006 µg/mL (≈ 0.00818 µM) | MIC ([11]; ATCC9341, read-out: minimum inhibiting concentration): 0.006 µg/mL (≈ 0.00818 µM) | MIC [12]: > 25 µg/mL | MIC [13]: > 25 µg/mL | MIC ([14]; LRP25, read-out: minimum inhibiting concentration): 0.049 µg/mL (≈ 0.0668 µM) | MIC [15]: 3.12 µg/mL (≈ 4.25 µM) | MIC [16]: > 25 µg/mL | MIC [17]: 12.5 µg/mL (≈ 17 µM) | MIC ([18]; ATCC19424, read-out: minimum inhibiting concentration): 0.049 µg/mL (≈ 0.0668 µM) | MIC [19]: 6.25 µg/mL (≈ 8.52 µM) | MIC ([20]; LRP54, read-out: minimum inhibiting concentration): 25 µg/mL (≈ 34.1 µM) | MIC ([21]; ATCC6380, read-out: minimum inhibiting concentration): > 25 µg/mL | MIC [22]: 12.5 µg/mL (≈ 17 µM) | MIC ([23]; ATCC23206, read-out: minimum inhibiting concentration): 0.097 µg/mL (≈ 0.132 µM) | MIC ([24]; ATCC14097, read-out: minimum inhibiting concentration): > 25 µg/mL | MIC [25]: 1.56 µg/mL (≈ 2.13 µM) | MIC ([26]; ATCC23745, read-out: minimum inhibiting concentration): 0.195 µg/mL (≈ 0.266 µM) | MIC [27]: 1.56 µg/mL (≈ 2.13 µM) | half-life ([28]; pH 2): 2 min | half-life ([28]; pH 3): 6 min

CC[C@H]1OC(=O)[C@H](C)[C@@H](O[C@H]2C[C@@](C)(OC)[C@@H](O)[C@H](C)O2)[C@H](C)[C@@H](O[C@@H]2O[C@H](C)C[C@H](N(C)C)[C@H]2O)[C@](C)(O)C[C@@H](C)C(=O)[C@H](C)[C@@H](O)[C@H]1C [Erythromycin B, reference compound]
MIC ([1]; ATCC6538, solid medium, LRP 39, read-out: minimum inhibiting concentration): 0.097 µg/mL (≈ 0.135 µM) | MIC ([2]; LRP14, solid medium, LRP 14, Penycilline resistant, read-out: minimum inhibiting concentration): 0.195 µg/mL (≈ 0.272 µM) | MIC ([3]; LRP7, solid medium, LRP 7, read-out: minimum inhibiting concentration): 0.195 µg/mL (≈ 0.272 µM) | MIC ([4]; ATCC12958, solid medium, LRP 61, read-out: minimum inhibiting concentration): 0.195 µg/mL (≈ 0.272 µM) | MIC ([5]; ATCC6303, solid medium, LRP 35, read-out: minimum inhibiting concentration): 0.024 µg/mL (≈ 0.0334 µM) | MIC ([6]; LRP52, solid medium, LRP 52, read-out: minimum inhibiting concentration): 0.024 µg/mL (≈ 0.0334 µM) | MIC ([7]; LRP53, solid medium, LRP 53, read-out: minimum inhibiting concentration): 0.024 µg/mL (≈ 0.0334 µM) | MIC ([8]; ATCC8668, solid medium, LRP 34, read-out: minimum inhibiting concentration): 0.024 µg/mL (≈ 0.0334 µM) | MIC ([9]; LRP197, solid medium, LRP 197, read-out: minimum inhibiting concentration): 0.024 µg/mL (≈ 0.0334 µM) | MIC ([10]; LRP24, solid medium, LRP 24, read-out: minimum inhibiting concentration): 0.012 µg/mL (≈ 0.0167 µM) | MIC ([11]; ATCC9341, solid medium, LRP 6, read-out: minimum inhibiting concentration): 0.006 µg/mL (≈ 0.00836 µM) | MIC [12]: > 25 µg/mL | MIC [13]: > 25 µg/mL | MIC ([14]; LRP25, solid medium, LRP 25, read-out: minimum inhibiting concentration): 0.049 µg/mL (≈ 0.0683 µM) | MIC [15]: 6.25 µg/mL (≈ 8.71 µM) | MIC [16]: > 25 µg/mL | MIC [17]: > 25 µg/mL | MIC ([18]; ATCC19424, solid medium, LRP 214, read-out: minimum inhibiting concentration): 0.097 µg/mL (≈ 0.135 µM) | MIC [19]: 25 µg/mL (≈ 34.8 µM) | MIC ([20]; LRP54, solid medium, LRP 54, read-out: minimum inhibiting concentration): 25 µg/mL (≈ 34.8 µM) | MIC ([21]; ATCC6380, solid medium, LRP 13, read-out: minimum inhibiting concentration): > 25 µg/mL | MIC [22]: 25 µg/mL (≈ 34.8 µM) | MIC ([23]; ATCC23206, solid medium, LRP 204, read-out: minimum inhibiting concentration): 0.097 µg/mL (≈ 0.135 µM) | MIC ([24]; ATCC14097, solid medium, LRP 211, read-out: minimum inhibiting concentration): > 25 µg/mL | MIC [25]: 1.56 µg/mL (≈ 2.17 µM) | MIC ([26]; ATCC23745, solid medium, LRP 205, anaerobic, read-out: minimum inhibiting concentration): 0.195 µg/mL (≈ 0.272 µM) | MIC [27]: 6.25 µg/mL (≈ 8.71 µM)
